Measurements published in ChEMBL document CHEMBL1122084, “Relative affinity of 17 alpha- and/or 21-esters and 17 alpha, 21-diesters of cortisol for a glucocorticoid receptor from rat thymocytes” (J Med Chem, 1982).

Legend:
[1] = target: T1, Glucocorticoid receptor (Rattus norvegicus) (UniProt P06536); experiment: Relative binding affinity for glucocorticoid receptor of rat thymus cytosol by displacement of [3H]dexamethasone compared to cortisol
T1 sequence (whole entry): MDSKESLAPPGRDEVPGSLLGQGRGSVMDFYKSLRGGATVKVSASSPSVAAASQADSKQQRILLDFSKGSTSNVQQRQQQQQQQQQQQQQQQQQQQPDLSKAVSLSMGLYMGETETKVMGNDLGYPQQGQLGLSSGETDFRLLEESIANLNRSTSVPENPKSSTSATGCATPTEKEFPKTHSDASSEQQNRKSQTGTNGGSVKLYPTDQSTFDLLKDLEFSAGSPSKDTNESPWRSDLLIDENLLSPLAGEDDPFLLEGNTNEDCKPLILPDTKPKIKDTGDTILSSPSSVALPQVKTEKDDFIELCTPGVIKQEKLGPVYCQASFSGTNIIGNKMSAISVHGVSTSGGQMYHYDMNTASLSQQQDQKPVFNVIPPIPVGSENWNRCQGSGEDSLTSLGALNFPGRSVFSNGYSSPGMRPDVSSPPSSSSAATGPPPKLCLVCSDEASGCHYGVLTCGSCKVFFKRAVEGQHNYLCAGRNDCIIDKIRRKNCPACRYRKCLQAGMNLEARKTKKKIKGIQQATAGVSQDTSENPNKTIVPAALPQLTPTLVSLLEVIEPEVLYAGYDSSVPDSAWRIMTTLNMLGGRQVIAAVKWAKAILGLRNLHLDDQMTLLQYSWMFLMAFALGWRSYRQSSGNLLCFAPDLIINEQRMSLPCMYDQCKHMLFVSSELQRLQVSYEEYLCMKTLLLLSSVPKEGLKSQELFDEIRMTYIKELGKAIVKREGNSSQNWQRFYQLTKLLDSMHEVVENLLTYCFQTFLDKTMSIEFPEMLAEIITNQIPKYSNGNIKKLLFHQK

[2] = target: T1, Glucocorticoid receptor (Rattus norvegicus); experiment: Relative binding affinity for glucocorticoid receptor of rat thymus cytosol by displacement of [3H]dexamethasone

| Relative binding affinity [1] | Relative binding affinity [2] | SMILES |
| --- | --- | --- |
| 0.093 |  | CCC(=O)OCC(=O)[C@@]1(OC(C)=O)CCC2C3CCC4=CC(=O)CCC4(C)C3C(O)CC21C (stereo partly drawn) |
| 0.152 |  | CCCC(=O)OCC(=O)[C@@]1(OC(C)=O)CCC2C3CCC4=CC(=O)CCC4(C)C3C(O)CC21C (stereo partly drawn) |
| 0.272 |  | CCCCC(=O)OCC(=O)[C@@]1(OC(C)=O)CCC2C3CCC4=CC(=O)CCC4(C)C3C(O)CC21C (stereo partly drawn) |
| 0.76 |  | CCCCC(=O)O[C@]1(C(=O)COC(C)=O)CCC2C3CCC4=CC(=O)CCC4(C)C3C(O)CC21C (stereo partly drawn) |
| 0.036 |  | CC(=O)OCC(=O)[C@@]1(OC(C)=O)CCC2C3CCC4=CC(=O)CCC4(C)C3C(O)CC21C (stereo partly drawn) |

Second part, the molecule before the results:

| SMILES | Relative binding affinity [1] | Relative binding affinity [2] |
| --- | --- | --- |
| CCCCC(=O)O[C@]1(C(=O)COC(=O)CCC)CCC2C3CCC4=CC(=O)CCC4(C)C3C(O)CC21C (stereo partly drawn) | 1.33 |  |
| C[C@]12CCC(=O)C=C1CC[C@@H]1[C@@H]2[C@@H](O)C[C@@]2(C)[C@H]1CC[C@]2(O)C(=O)CO |  | 1 |
| CCCC(=O)O[C@]1(C(=O)CO)CC[C@H]2[C@@H]3CCC4=CC(=O)CC[C@]4(C)[C@H]3[C@@H](O)C[C@@]21C | 12.4 |  |
| CCCCC(=O)O[C@]1(C(=O)COC(=O)CC)CCC2C3CCC4=CC(=O)CCC4(C)C3C(O)CC21C (stereo partly drawn) | 1.17 |  |
| CC(=O)OCC(=O)[C@@]1(O)CC[C@H]2[C@@H]3CCC4=CC(=O)CC[C@]4(C)[C@H]3[C@@H](O)C[C@@]21C | 0.046 |  |
| CC(=O)O[C@]1(C(=O)CO)CCC2C3CCC4=CC(=O)CCC4(C)C3C(O)CC21C (stereo partly drawn) | 1.14 |  |
| CCCCC(=O)OCC(=O)[C@@]1(O)CCC2C3CCC4=CC(=O)CCC4(C)C3C(O)CC21C (stereo partly drawn) | 0.32 |  |
| CCCCC(=O)O[C@]1(C(=O)CO)CCC2C3CCC4=CC(=O)CCC4(C)C3C(O)CC21C (stereo partly drawn) | 11.5 |  |
